Where two headings read alike, the source gives them in different places.
Tests used:
5-HT1A (h) = 5-HT1A (h) (Homo sapiens (Human), UniProt P08908); test: ExpresSProfile: 5-hydroxytryptamine receptor 1A, agonist radioligand; assay type: binding; details: Test Concentration 1.0E−05 M
mu (MOP) (h) = mu (MOP) (h) (Homo sapiens (Human), UniProt P35372); test: ExpresSProfile: mu opioid receptor, agonist radioligand; assay type: binding; details: Test Concentration 1.0E−05 M
GAL2 (h) = GAL2 (h) (Homo sapiens (Human), UniProt O43603); test: ExpresSProfile: galanin receptor 2, agonist radioligand; assay type: binding; details: Test Concentration 1.0E−05 M
Sequence of GAL2 (h) (O43603 whole entry): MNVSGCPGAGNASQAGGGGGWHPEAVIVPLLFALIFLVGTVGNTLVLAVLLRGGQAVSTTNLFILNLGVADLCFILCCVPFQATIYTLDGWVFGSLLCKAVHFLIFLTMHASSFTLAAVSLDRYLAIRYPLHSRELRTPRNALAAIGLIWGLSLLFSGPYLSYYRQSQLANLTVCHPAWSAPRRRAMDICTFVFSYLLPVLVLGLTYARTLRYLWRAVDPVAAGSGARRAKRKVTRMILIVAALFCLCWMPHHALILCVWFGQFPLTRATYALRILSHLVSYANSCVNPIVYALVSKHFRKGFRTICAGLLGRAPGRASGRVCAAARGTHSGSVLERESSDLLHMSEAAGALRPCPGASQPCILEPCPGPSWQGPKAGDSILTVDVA

M3 (h) = M3 (h) (Homo sapiens (Human), UniProt P20309); test: ExpresSProfile: muscarinic receptor 3, antagonist radioligand; assay type: binding; details: Test Concentration 1.0E−05 M
Sequence of M3 (h) (P20309 whole entry): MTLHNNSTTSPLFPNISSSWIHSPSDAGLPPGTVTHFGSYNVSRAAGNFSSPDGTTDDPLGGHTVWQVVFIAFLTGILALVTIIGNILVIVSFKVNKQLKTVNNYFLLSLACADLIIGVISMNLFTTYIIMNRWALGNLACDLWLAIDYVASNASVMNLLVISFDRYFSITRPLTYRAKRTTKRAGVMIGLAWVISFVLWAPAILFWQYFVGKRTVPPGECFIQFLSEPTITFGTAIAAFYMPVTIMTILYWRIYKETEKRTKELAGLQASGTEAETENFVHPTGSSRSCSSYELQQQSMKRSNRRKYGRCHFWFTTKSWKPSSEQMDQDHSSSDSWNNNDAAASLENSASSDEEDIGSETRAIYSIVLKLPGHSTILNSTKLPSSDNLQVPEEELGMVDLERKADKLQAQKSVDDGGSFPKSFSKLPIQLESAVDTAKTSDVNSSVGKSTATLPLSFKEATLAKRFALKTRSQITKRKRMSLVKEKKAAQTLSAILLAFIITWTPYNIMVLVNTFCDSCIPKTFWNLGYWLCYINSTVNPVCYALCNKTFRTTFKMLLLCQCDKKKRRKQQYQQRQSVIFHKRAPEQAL

CCR1 (h) = CCR1 (h) (Homo sapiens (Human), UniProt P32246); test: ExpresSProfile: C-C chemokine receptor type 1, agonist radioligand; assay type: binding; details: Test Concentration 1.0E−05 M
Sequence of CCR1 (h) (P32246 whole entry): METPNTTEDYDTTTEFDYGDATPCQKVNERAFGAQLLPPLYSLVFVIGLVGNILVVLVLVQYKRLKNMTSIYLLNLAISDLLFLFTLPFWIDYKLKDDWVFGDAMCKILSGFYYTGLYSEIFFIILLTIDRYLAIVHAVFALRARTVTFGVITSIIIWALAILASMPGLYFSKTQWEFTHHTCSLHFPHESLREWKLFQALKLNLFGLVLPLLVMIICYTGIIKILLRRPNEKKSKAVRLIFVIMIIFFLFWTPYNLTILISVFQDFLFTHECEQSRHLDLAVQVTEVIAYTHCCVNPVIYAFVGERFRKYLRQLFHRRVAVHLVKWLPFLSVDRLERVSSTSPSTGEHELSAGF

NOP (ORL1) (h) = NOP (ORL1) (h) (Homo sapiens (Human), UniProt P41146); test: ExpresSProfile: nociception receptor, agonist radioligand; assay type: binding; details: Test Concentration 1.0E−05 M
Sequence of NOP (ORL1) (h) (P41146 whole entry): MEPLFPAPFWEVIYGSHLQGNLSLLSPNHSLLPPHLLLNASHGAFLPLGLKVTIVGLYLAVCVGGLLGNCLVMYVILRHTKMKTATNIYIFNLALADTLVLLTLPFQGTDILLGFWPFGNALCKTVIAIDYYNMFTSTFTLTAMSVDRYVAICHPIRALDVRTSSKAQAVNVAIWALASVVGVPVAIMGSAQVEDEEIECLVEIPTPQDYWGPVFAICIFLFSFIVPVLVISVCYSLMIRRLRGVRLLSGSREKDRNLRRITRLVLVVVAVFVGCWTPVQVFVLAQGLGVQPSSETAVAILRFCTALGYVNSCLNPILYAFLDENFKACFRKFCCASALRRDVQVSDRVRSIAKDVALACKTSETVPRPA

[1] = tested on: Ca2+ channel (L, verapamil site) (phenylalkylamine); test: ExpresSProfile: Ca2+ channel, antagonist radioligand; assay type: binding; details: Test Concentration 1.0E−05 M
KV channel = test: ExpresSProfile: KV channel, antagonist radioligand; assay type: binding; details: Test Concentration 1.0E−05 M
[2] = Plasma protein binding assay, mouse; assay type: in vitro ADME; details: plasma proteins, 4 h at 37° C., equilibrium dialysis, read-out: % bound [mouse] (converted)
From the text: (§1) A drug's efficiency may be affected by the degree to which it binds to the proteins within blood plasma. A drug in blood exists in two forms: bound and unbound. Depending on a specific drug's affinity for plasma protein, a proportion of the drug may become bound to plasma proteins, with the remainder being unbound. […] It is also the fraction that may be metabolized and/or excreted. Protein binding can influence the drug's biological half-life in the body. The bound portion may act as a reservoir or depot from which the drug is slowly released as the unbound form. In order to determine the binding characteristics of the compounds of the present invention as listed in the following Table to human or mouse plasma protein, respectively, a plasma protein binding assay was carried out. All compounds have a plasma protein binding that is appropriate for diagnostic, therapeutic and theranostic use of these compounds according to the present invention.
(§2) The binding of test substances to human and murine plasma proteins was tested by Cerep (Celle l'Evescault, France; Catalog reference 2194 [human] and 2223 [mouse]) according to Banker et al., J. Pharm. Sci., 2003, 92, 967-974. Test compounds were incubated with human or murine plasma proteins for 4 h at 37° C. Subsequently, the fraction of compound bound to plasma proteins was determined by equilibrium dialysis and HPLC-MS/MS detection. […]

[3] = Plasma protein binding assay, human; assay type: in vitro ADME; details: plasma proteins, 4 h at 37° C., equilibrium dialysis, read-out: % bound [human]
From the text: as §1, §2

[4] = read-out: % Inhibition of Control Specific Binding
[5] = read-out: % of Control Specific Binding 1st
[6] = read-out: % of Control Specific Binding 2nd
[7] = read-out: % of Control Specific Binding Mean

Sequence of mu (MOP) (h) (P35372 whole entry): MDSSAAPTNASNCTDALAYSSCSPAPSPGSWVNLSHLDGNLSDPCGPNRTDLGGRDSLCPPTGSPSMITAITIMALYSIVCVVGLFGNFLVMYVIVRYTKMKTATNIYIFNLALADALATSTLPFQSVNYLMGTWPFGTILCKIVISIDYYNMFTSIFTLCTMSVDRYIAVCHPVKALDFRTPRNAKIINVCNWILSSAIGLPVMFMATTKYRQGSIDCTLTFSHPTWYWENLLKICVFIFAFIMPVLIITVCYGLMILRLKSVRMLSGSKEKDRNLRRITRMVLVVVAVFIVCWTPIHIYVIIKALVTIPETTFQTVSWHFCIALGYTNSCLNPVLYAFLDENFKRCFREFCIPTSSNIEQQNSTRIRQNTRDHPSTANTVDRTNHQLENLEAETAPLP
Sequence of 5-HT1A (h) (P08908 whole entry): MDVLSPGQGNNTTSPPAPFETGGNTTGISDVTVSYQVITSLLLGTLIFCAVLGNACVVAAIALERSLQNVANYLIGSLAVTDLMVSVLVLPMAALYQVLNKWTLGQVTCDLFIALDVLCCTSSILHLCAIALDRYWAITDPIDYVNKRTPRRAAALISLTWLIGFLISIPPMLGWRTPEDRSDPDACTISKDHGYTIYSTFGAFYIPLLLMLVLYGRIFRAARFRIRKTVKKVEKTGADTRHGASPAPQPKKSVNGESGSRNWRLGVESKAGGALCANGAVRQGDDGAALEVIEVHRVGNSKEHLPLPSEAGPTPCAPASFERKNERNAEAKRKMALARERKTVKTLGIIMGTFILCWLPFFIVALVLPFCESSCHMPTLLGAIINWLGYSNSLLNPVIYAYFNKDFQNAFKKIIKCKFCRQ

For `COc1cccc(OC)c1-c1cc(C(=O)NC2(C(=O)O)C3CC4CC(C3)CC2C4)nn1-c1ccc(C(=O)N(C)CCCN(C)CCCN(C)C(=O)CN2CCN(CC(=O)O)CCN(CC(=O)O)CCN(CC(=O)O)CC2)cc1C(C)C` (stereo not shown) [(IIIa), 2-{[1-{4-[(3-{[3-(DOTA-methyl-amino)-propyl]-methyl-amino}-propyl)-methyl-carbamoyl]-2-isopropyl-phenyl}-5-(2,6-dimethoxy-phenyl)-1H-pyrazole-3-carbonyl]-amino}-adamantane-2-carboxylic acid], the inhibition at 10 µM (5-HT1A (h); [4]) was -29%, the remaining activity at 10 µM (5-HT1A (h); [5]) was 130% and the remaining activity at 10 µM (5-HT1A (h); [6]) was 129%. For the same molecule, the remaining activity at 10 µM (5-HT1A (h); [7]) was 129%, the inhibition at 10 µM (mu (MOP) (h); [4]) was 0% and the remaining activity at 10 µM (mu (MOP) (h); [5]) was 108%. For the same molecule, the remaining activity at 10 µM (mu (MOP) (h); [6]) was 92.6%, the remaining activity at 10 µM (mu (MOP) (h); [7]) was 100% and the inhibition at 10 µM (GAL2 (h); [4]) was 1%. It also gave a remaining activity at 10 µM (GAL2 (h); [5]) of 96.5%, a remaining activity at 10 µM (GAL2 (h); [6]) of 102% and a remaining activity at 10 µM (GAL2 (h); [7]) of 99.3%. The inhibition at 10 µM (M3 (h); [4]) was -23%, the remaining activity at 10 µM (M3 (h); [5]) was 122% and the remaining activity at 10 µM (M3 (h); [6]) was 124%. The remaining activity at 10 µM (M3 (h); [7]) was 124%, the inhibition at 10 µM (CCR1 (h); [4]) was -6% and the remaining activity at 10 µM (CCR1 (h); [5]) was 103%. For the same molecule, the remaining activity at 10 µM (CCR1 (h); [6]) was 109%, the remaining activity at 10 µM (CCR1 (h); [7]) was 106% and the inhibition at 10 µM (NOP (ORL1) (h); [4]) was -7%. The remaining activity at 10 µM (NOP (ORL1) (h); [5]) was 104%, the remaining activity at 10 µM (NOP (ORL1) (h); [6]) was 109% and the remaining activity at 10 µM (NOP (ORL1) (h); [7]) was 107%. The “% Inhibition of Control Specific Binding” value [1] was 0%, the “% of Control Specific Binding 1st” value [1] was 96.1% and the “% of Control Specific Binding 2nd” value [1] was 103.7%. For the same molecule, the “% of Control Specific Binding Mean” value [1] was 99.9%, the “% Inhibition of Control Specific Binding” value (KV channel) was −4% and the “% of Control Specific Binding 1st” value (KV channel) was 104.3%. For the same molecule, the “% of Control Specific Binding 2nd” value (KV channel) was 104.2%, the “% of Control Specific Binding Mean” value (KV channel) was 104.3% and the fraction unbound at 4 h [2] was 0.11. It also gave a fraction unbound at 4 h [3] of 0.01.

Source: patent US10799605B2 (3B PHARMACEUTICALS GMBH, priority 2014, dated 2020)
